Results: patent US4918064A, “Phenyl glycines for use in reducing neurotoxic injury” (G. D. Searle & Co., priority 1987, dated 1990)

How the values were obtained:
[1] = system: hippocampal neurons; experiment: Hypoxia Survival Assay, cultured hippocampal neurons (MTT); assay type: cell-based, Sprague-Dawley rat; conditions: 50 μM compound
Description: Hippocampal neurons were obtained from embryonic day 17 Sprague-Dawley rats. The brains were removed and the hippocampus dissected, placed in ice-cold Leibovitz L-15 medium, carefully stripped of any remaining meninges, and minced into small pieces using scissors. The tissue was rinsed with calcium-magnesium-free Hanks' Balanced Salt Solution and incubated with 0.25% trypsin (Worthington), 40 μg/ml DNAase (Sigma) for 30 minutes at 36° C. Following incubation, the cells were rinsed with 10% serum-containing medium and dissociated by gentle trituration using a reduced bore diameter Pasteur pipet. […]
The neuronal survival assay utilized the compound MTT [3-(4,5-dimethylthiazol-2-yl)-2,5-diphenyl tetrazolium bromide], a pale yellow substrate that is cleaved by the mitochondrial enzyme succinate-dehydrogenase to yield a dark blue formazan product. […] The precipitate was then solubilized using 0.08N HCl/isopropanol mixture and the absorbance measured with an ELISA plate reader (Dynatech MR600) using a test wavelength of 570 nm and a reference wavelength of 630 nm. […]
The cells were grown for 2-3 weeks in 5% CO2 -in-air humidified environment at 36° C. to establish a thick network of neuronal processes with numerous spontaneously active synapses. […] Following 2 hours of exposure to normal O2 tension, the cultures were processed for morphological and quantitive biochemical neuronal cell viability assays.

[2] = system: hippocampal neurons; assay type: cell-based, Sprague-Dawley rat; conditions: 1 μM compound
Description: Hippocampal neurons were obtained from embryonic day 17 Sprague-Dawley rats. The brains were removed and the hippocampus dissected, placed in ice-cold Leibovitz L-15 medium, carefully stripped of any remaining meninges, and minced into small pieces using scissors. The tissue was rinsed with calcium-magnesium-free Hanks' Balanced Salt Solution and incubated with 0.25% trypsin (Worthington), 40 μg/ml DNAase (Sigma) for 30 minutes at 36° C. Following incubation, the cells were rinsed with 10% serum-containing medium and dissociated by gentle trituration using a reduced bore diameter Pasteur pipet. The cells were plated on a polylysine-coated (0.5 rg/ml, Sigma) 96-well microtiter plates at 30,000 cells/well. Cells were maintained in fluorodeoxyuridine (5 μM) containing chemically defined medium [Bottenstein, J., Sato, G., "Growth of a Rat Neuroblastoma Cell Line in Serum-free Supplemented Medium", Proc. Nat'l. […]

[3] = system: NMDA-induced focal potentials, hippocampal slices; experiment: In Vitro Hippocampal Slice Assay (NMDA-induced focal potentials); assay type: cell-based, Sprague-Dawley albino rat; conditions: Rattus norvegicus; 100 μM NMDA pressure ejections, recorded in CA1
Description: Hippocampal slices were prepared from male, Sprague-Dawley albino rats (100-300 gm) and maintained as described previously [Ganong, A. H., Lanthorn, T. H., Cotman, C. W., "Kynurenic Acid Synaptic and Acidic Amino Acid-Induced Responses in the Rat Hippocampus and Spinal Cord", Brain Research, 273 170-174 (1983)]. The hippocampus was removed in the cold and sliced to a thickness of 450 microns on a McIlwain tissue chopper in experimental medium (124 mM NaCl, 2.5 mM KCl, 1.0 mM KH2 PO4, 26.4 mM NaHCO3, 2 mM CaCl2, 1.5 mM MgSO4, and 10 mM D-glucose) with 10 mM Hepes. The slices were quickly transferred to a static bath and rinsed with experimental medium (without Hepes) and maintained at 34°-35° C. in a humidified chamber with 95% oxygen and 5% carbon dioxide. As needed, slices were transferred from the static bath to a small perfusion chamber where they were secured with an upper net and completely submerged in a continuously flowing experimental medium (2.0 ml/min). The Schaffer collateral/commissural-CAl (S/C-CAl) synaptic response was stimulated (0.05 Hz; 0.01 msec. single duration shock) with bipolar electrodes (Rhodes, Inc.) from stratum radiatum at the CA2-CA3 border. Evoked field EPSPs and drug-induced focal potentials were recorded in the middle portion of CAl. […]

NC(C(=O)O)c1ccc(CP(=O)(O)O)cc1 (stereo not drawn) [Example VI, 4-(Phosphonomethyl)phenylglycine]
protection of neurons from hypoxic insult [1]: Maximum protection of neurons from hypoxic insult
protection of neurons from sodium azide toxicity [2]: significant protection
IC50 [3]: 4 µM
